# Measurements as given in patent US20240400542A1 (University of Virginia Patent Foundation, priority 2021, published 2024).
# Tests used:
# [1] = system: Major capsid protein VP1; test: SILAC competitive chemical proteomic assay (TH211 probe, LC-MS/MS); format: cell-based; conditions: TH207 inhibitor; HEK293T soluble fraction; Q98WD1 lysine 235
# Method: (§1) The light and heavy proteomes (2.3 mg/mL, 432 μL) prepared from HEK293T cells that were pretreated in situ with vehicle (DMSO) or the inhibitor (2 μM), respectively, at 37° C. for 1 hr followed by probe TH211 treatment (50 μM) for 2 h, were directly were subjected to click reaction with the desthiobiotin-PEG3-azide (10 mM in DMSO, 10 μL, final concentration 200 μM) in the presence of TCEP (50 mM, 10 μL), TBTA (1.7 mM, 33 μL) and CuSO4 (50 mM, 10 μL) at room temperature for 1 hr. The light and the heavy samples were mixed in the chloroform-methanol extraction step. The subsequent steps including reduction with dithiothreitol, alkylation with iodoacetamide, digestion with Trypsin/Lys-C, enrichment with avidin beads were conducted as previously described^26.
# [2] = molecular target: T1, Proteasome subunit alpha type-2 (Homo sapiens, UniProt P25787); test: as above; format: cell-based; conditions: TH207 inhibitor; HEK293T soluble fraction; P25787.2 lysine 92
# T1 construct: endogenous in cells; host or cells: HEK293T
# Method: as §1
smiles,measurement,setting,value
"Cc1ccc(S(=O)(=O)n2cc(CCN3CCC(=C(c4ccc(F)cc4)c4ccc(F)cc4)CC3)nn2)cc1 [TH207, 4-(Bis(4-fluorophenyl)methylene)-1-(2-(1-tosyl-1H-1,2,3-triazol-4-yl)ethyl)piperidine]","Normalized SILAC ratio (SR), Major capsid protein VP1 K235",[1],1.3
same,"Normalized SILAC ratio (SR), Proteasome subunit alpha type-2 K92",[2],1.2
